Assay [1] addresses T1, Mitogen-activated protein kinase 8 (Homo sapiens, UniProt P45983). Briefly: DELFIA Assay (Dissociation Enhanced Lanthanide Fluoro-Immuno Assay).
Assay [2] addresses T1, Mitogen-activated protein kinase 8. Briefly: In Vitro Kinase Assay (LanthaScreen Kinase Assay). The procedure:
Compounds were tested for their ability to inhibit JNK1 phosphorylation of ATF2 in the Time-Resolved Fluorescence Resonance Energy Transfer (TR-FRET) based LanthaScreen kinase assay (Invitrogen). The signal was measured at 520/495 nm emission ratio on a fluorescence plate reader (Victor 2, Perkin-Elmer).

Bounds are passed on as bounds.

T1 sequence (P45983 whole entry): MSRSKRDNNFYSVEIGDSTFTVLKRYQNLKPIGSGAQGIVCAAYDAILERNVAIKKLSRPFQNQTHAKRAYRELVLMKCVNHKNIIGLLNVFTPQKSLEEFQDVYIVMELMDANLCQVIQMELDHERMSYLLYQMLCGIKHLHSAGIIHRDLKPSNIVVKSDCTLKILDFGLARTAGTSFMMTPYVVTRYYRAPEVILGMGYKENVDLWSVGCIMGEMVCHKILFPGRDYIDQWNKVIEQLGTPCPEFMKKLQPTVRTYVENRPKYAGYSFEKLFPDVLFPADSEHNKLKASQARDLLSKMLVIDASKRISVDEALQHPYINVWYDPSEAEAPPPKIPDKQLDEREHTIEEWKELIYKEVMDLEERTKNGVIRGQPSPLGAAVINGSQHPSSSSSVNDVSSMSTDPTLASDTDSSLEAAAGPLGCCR

As for `O=[N+]([O-])c1cnc(Sc2nnc(O)n2-c2cccc(C(F)(F)F)c2)s1` [triazole, 3o], the IC50 – broadly, the midpoint of a concentration-inhibition curve – in assay [1] was 2900 nM; in assay [1] (pH 7.8, 0 °C) it was 160 nM.

In the case of `O=[N+]([O-])c1cnc(Sc2nnc(O)n2C2CCCCC2)s1` [triazole, 3q], the concentration for half-maximal inhibition (IC50) in assay [1] was found to be 25000 nM; in assay [1] (pH 7.8, 0 °C), 56 nM.

In turn, `O=[N+]([O-])c1cccc(CSc2nnc(SCc3cccc([N+](=O)[O-])c3)s2)c1` [dithioether 1,3,4-thiadiazole, 8d] gave an IC50 in assay [2] of over 100000 nM.

In assay [2], `Fc1ccc(CSc2nnc(SCc3ccc(F)cc3)s2)cc1` [dithioether 1,3,4-thiadiazole, 8b] yielded an IC50 of over 100000 nM.

With `Nc1nnc(Sc2ncc([N+](=O)[O-])s2)s1` [2-amino-1,3,4-thiadiazole, 9], the IC50 in assay [1] stood at 239 nM; in assay [2] it was 700 nM.

As for `Cn1c(Cc2nc(-c3cnccn3)[n-][o+]2)nnc1Sc1ncc([N+](=O)[O-])s1` [triazole, 7g], the half-maximal inhibitory concentration (IC50) in assay [1] is 100000 nM; in assay [1] (pH 7.8, 0 °C), 131 nM.

Regarding `O=[N+]([O-])c1cnc(Sc2nnc(O)n2-c2ccc(F)c(F)c2)s1` [triazole, 3k], in assay [1], the concentration for half-maximal inhibition (IC50) turned out to be 6600 nM.

As to `O=c1[nH]nc(Sc2ncc([N+](=O)[O-])s2)n1-c1ccc([N+](=O)[O-])cc1` [triazole, 3j], the concentration for half-maximal inhibition (IC50) in assay [1] turned out to be 400 nM; in assay [1] (pH 7.8, 0 °C), 86 nM.

Consider `O=[N+]([O-])c1cnc(Sc2nnc(O)n2-c2ccc(C(F)(F)F)cc2)s1` [triazole, 3p], for which the IC50 was determined as 3000 nM in assay [1] and 75 nM in assay [1] (pH 7.8, 0 °C).

Turning to `O=[N+]([O-])c1ccc(CSc2nnc(SCc3ccc([N+](=O)[O-])cc3)s2)cc1` [dithioether 1,3,4-thiadiazole, 8e], the half-inhibitory concentration (IC50) in assay [2] is over 100000 nM.

`O=C(O)c1cnc(Sc2nnc(Sc3ncc(C(=O)O)s3)s2)s1` [dithioether 1,3,4-thiadiazole, 8g]: the 50% inhibitory concentration (IC50) turned out to be 100 nM in assay [1] and 84000 nM in assay [2].

As to `COc1ccc(-n2c(Sc3ncc([N+](=O)[O-])s3)n[nH]c2=O)cc1OC` [triazole, 3f], the IC50 is 1000 nM in assay [1] and 43 nM in assay [1] (pH 7.8, 0 °C).

Consider `O=[N+]([O-])c1cnc(Sc2nnc(O)n2-c2cccc3ccccc23)s1` [triazole, 3g], for which the half-maximal inhibitory concentration (IC50) in assay [1] came out at 2700 nM; in assay [1] (pH 7.8, 0 °C) it was 48 nM.

As to `COc1cc(OC)cc(-n2c(Sc3ncc([N+](=O)[O-])s3)n[nH]c2=O)c1` [triazole, 3e], the IC50 in assay [1] amounted to 4300 nM; in assay [1] (pH 7.8, 0 °C), 105 nM.

On to `CC(C)(C)c1ccc(-n2c(O)nnc2Sc2ncc([N+](=O)[O-])s2)cc1` [triazole, 3a], for which the IC50 was determined as 39000 nM in assay [1] and 95 nM in assay [1] (pH 7.8, 0 °C).

As for `Cn1cccc1-c1nnc(Sc2ncc([N+](=O)[O-])s2)n1-c1ccc(Cl)cc1Cl` [triazole, 7b], the IC50 came out at 2000 nM in assay [1] and 83 nM in assay [1] (pH 7.8, 0 °C).

Turning to `O=C(Nc1nnc(Sc2ncc([N+](=O)[O-])s2)s1)c1ccc(F)cc1` [2-amino-1,3,4-thiadiazole, 10], 84000 nM corresponded to half-maximal inhibition in assay [2] (IC50).

On to `O=[N+]([O-])c1cnc(Sc2nnc(-c3ccncc3)n2-c2ccccc2)s1` [triazole, 7f], for which the IC50 in assay [1] is 3100 nM; in assay [1] (pH 7.8, 0 °C), 122 nM.

As to `O=c1[nH]nc(Sc2ncc([N+](=O)[O-])s2)n1-c1ccc(F)cc1` [triazole, 3c], the IC50 in assay [1] was 1800 nM; in assay [1] (pH 7.8, 0 °C), 225 nM.

As for `COc1cccc(-n2c(O)nnc2Sc2ncc([N+](=O)[O-])s2)c1` [triazole, 3m], the IC50 in assay [1] worked out at 16000 nM; in assay [1] (pH 7.8, 0 °C), 118 nM.

Regarding `O=c1[nH]nc(Sc2ncc([N+](=O)[O-])s2)n1-c1cccc(F)c1` [triazole, 3l], the 50% inhibitory concentration (IC50) was determined as 84000 nM in assay [1] and 626 nM in assay [1] (pH 7.8, 0 °C).

Take `O=[N+]([O-])c1cnc(Sc2nnc(-c3cccc4ccccc34)n2Cc2ccco2)s1` [triazole, 7d]: the IC50 in assay [1] worked out at 13600 nM; in assay [1] (pH 7.8, 0 °C), 57 nM.

Regarding `O=c1[nH]nc(Sc2ncc([N+](=O)[O-])s2)n1-c1ccc(OC(F)(F)F)cc1` [triazole, 3i], the half-inhibitory concentration (IC50) amounted to 2000 nM in assay [1] and 130 nM in assay [1] (pH 7.8, 0 °C).

Turning to `O=[N+]([O-])c1cnc(Sc2nnc(Sc3ncc([N+](=O)[O-])s3)s2)s1` [dithioether 1,3,4-thiadiazole, 8f], the IC50 was determined as 187 nM in assay [1] and 800 nM in assay [2].

As for `COc1ccc(OC)c(-n2c(Sc3ncc([N+](=O)[O-])s3)n[nH]c2=O)c1` [triazole, 3h], the concentration for half-maximal inhibition (IC50) was determined as 2400 nM in assay [1] and 85 nM in assay [1] (pH 7.8, 0 °C).

Take `COc1ccc(CSc2nnc(SCc3ccc(OC)cc3)s2)cc1` [dithioether 1,3,4-thiadiazole, 8c]: the IC50 in assay [2] is over 100000 nM.

`c1ccc(CSc2nnc(SCc3ccccc3)s2)cc1` [dithioether 1,3,4-thiadiazole, 8a] registered a half-maximal inhibitory concentration (IC50) in assay [2] of over 100000 nM.
